Measured values as given in patent publication US20240024320A1, “METHODS OF TREATING CANCER WITH A COMBINATION OF TUCATINIB AND AN ANTI-PD-1/ANTI-PD-L1 ANTIBODY” (Seagen Inc., priority 2020, published 2024).
“Also recorded” adds a separate entry of the source.

How the values were obtained:
[1] = tested on: Fo5 tumors; assay: ex vivo FACS analysis of trastuzumab resistant Fo5 tumors; type: in vivo, FVB mice
Method: Tumors were harvested after 10-14 days of tucatinib 50 mg/kg treatment for Fo5 tumors and analyzed by FACS.
In vivo mouse studies. Female MMTV/Balb/c and FVB mice between 6 to 8 weeks of age were utilized for experiments. Treatment groups consisted of n=5 to 8 mice per group. […] Randomization and treatment commenced at approximately day 10 post-inoculation for the H2N113 tumor model with tumor sizes varying between 40 to 80 mm^3 and approximately day 14 for the Fo5 tumor model with tumor sizes varying between 60 to 120 mm^3. Tumor volumes were calculated using the equation […], where length and width refer to the larger and smaller dimensions collected at each measurement. […] Immunotherapy and isotype controls in both models were delivered on days 0, 4, 8, and 12. Tumor volumes were measured twice weekly with calipers. Survival was monitored and determined when the tumors reached an ethical limit of 1500 mm^3.
Flow cytometry analysis. For ex vivo studies, tumors were dissected, mechanically morcellated and passed through 70 μm filters. Cells were then resuspended in 30 μg/mL DNAse (Sigma-Aldrich) followed by Fc block (clone 2.4g2). Single cell suspensions were then stained with antibody cocktails for various TIL subsets. In some experiments, isolated cells were stimulated with phorbol 12-myristate 13-acetate (PMA; 50 ng/mL) and ionomycin (1 μg/mL; Sigma-Aldrich) in the presence of GolgiPlug (BD Biosciences; 1:1000) and GolgiStop (BD Biosciences; 1:1500) for 3 to 4 hours prior to flow cytometry analysis. Samples were analyzed by FACS with either Fixable Yellow or Zombie Red to discriminate viable and dead cells. BD fluorosphere counting beads were added to cocktails before running sample.

[2] = tested on: SKBR3; assay: growth inhibition assay (CellTitre-Glo), SKBR3; type: cell-based, human; details: SKBR3, dose-dependent cell growth inhibition; FIG. 5B
[3] = tested on: HER2 signaling pathway; assay: Western blot for phosphor-HER2 and total HER2, H2N113 cells; type: cell-based, murine; details: H2N113 cells treated with tucatinib vs vehicle; FIG. 11B
[4] = molecular target: HER2 (Homo sapiens, UniProt P04626); details: cellular signaling assays; background statement; cited from earlier work
Chain of HER2 (P04626 23-1255): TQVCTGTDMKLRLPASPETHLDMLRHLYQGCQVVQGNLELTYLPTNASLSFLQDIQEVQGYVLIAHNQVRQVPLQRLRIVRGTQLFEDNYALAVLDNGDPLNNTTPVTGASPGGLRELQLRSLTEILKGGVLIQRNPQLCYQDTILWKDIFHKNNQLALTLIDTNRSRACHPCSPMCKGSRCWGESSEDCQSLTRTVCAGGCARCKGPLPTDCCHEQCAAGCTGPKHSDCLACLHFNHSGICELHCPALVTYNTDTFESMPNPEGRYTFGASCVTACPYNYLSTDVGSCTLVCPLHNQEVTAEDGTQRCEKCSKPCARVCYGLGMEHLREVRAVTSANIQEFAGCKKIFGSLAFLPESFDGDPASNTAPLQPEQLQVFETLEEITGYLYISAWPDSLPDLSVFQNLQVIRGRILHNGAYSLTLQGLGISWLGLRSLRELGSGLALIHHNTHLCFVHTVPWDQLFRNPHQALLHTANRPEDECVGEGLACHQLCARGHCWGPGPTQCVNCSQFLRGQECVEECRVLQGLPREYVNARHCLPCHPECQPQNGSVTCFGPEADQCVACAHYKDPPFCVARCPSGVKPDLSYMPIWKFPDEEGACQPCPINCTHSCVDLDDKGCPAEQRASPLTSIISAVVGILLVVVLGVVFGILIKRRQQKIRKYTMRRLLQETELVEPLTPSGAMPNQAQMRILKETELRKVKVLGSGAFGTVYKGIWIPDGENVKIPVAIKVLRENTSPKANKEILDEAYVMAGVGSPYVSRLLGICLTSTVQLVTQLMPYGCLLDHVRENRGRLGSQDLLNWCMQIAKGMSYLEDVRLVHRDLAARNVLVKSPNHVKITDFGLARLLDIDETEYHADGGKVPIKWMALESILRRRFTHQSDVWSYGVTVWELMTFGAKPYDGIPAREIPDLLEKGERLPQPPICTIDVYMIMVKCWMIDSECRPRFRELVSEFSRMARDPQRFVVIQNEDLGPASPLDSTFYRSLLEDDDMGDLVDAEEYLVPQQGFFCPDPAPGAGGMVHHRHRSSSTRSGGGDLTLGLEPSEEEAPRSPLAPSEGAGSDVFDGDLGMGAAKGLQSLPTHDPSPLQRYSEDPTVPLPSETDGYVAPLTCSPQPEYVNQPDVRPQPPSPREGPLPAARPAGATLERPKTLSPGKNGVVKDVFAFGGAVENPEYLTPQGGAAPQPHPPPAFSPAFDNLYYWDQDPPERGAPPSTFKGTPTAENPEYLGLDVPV

[5] = tested on: H2N113 tumors; type: in vivo
[6] = tested on: HER2 signaling pathway; assay: Western blot for phosphor-HER2 and total HER2, Fo5 tumors; type: in vivo, FVB mice; details: Fo5 tumors treated with tucatinib vs vehicle; FIG. 11A
[7] = tested on: Fo5 tumors; assay: ex vivo RNA sequencing / gene expression analysis of Fo5 tumors; type: in vivo, FVB mice
Method: The harvested tumors were then processed for stranded polyA RNA sequencing. […] Columns represent individual tumor samples and rows are individual genes.
Genomic analysis of mouse samples. RNA was extracted from Fo5 tumors treated in vivo with tucatinib at 50 mg/kg or vehicle (methyl cellulose, 0.5%) for 10 days using TRIzol® Reagent with the PureLink® RNA Mini Kit (Invitrogen™, Thermo Fisher Scientific, Waltham, MA, USA). Quantity and integrity of the total RNA was checked using a TapeStation 2200 (Agilent Technologies) and 500 ng used for library preparation according to standard protocols (NEBNext Ultra II Directional RNA Library Prep Kit for Illumina and NEBNext Poly(A) mRNA Magnetic Isolation Module, NEB). Indexed libraries were pooled and sequenced on a NextSeq500 flowcell (Illumina) to generate 25-50 million paired-end 75 bp reads per sample. Pre-processing and quantile normalization of microarray data was performed with the AFFY package in R. From normalized RNA intensities, unbiased, differential expression analysis and a short list of gene (FDR<0.05) was generated with the LIMMA package in R. Using the differentially expressed genes, pathway and molecular function enrichment analysis was performed in MetCore GeneCo. The GSEA software for gene set enrichment analysis was used with normalized RNA intensities. The false discovery rate was set at <10%. Top gene pathways were selected based on a P-value of <0.05 and a fold change of >1.5. All analyses were performed using R version 3.5.0. Gene sets for differential expression heat maps included interferon-γ 10-gene, preliminary expanded immune 28-gene, T cell inflamed 18-gene, and T-effector 6-gene signature sets, all of which have been associated with PD-1 or PD-L1 blockade amongst a range of tumor types, including breast cancer.

[8] = tested on: H2N113 tumors; type: in vivo; remark: listed apart in the source
[9] = tested on: H2N113; assay: growth inhibition assay (CellTitre-Glo), H2N113; type: cell-based, murine; details: H2N113, dose-dependent cell growth inhibition; FIG. 5C
[10] = tested on: BT474; assay: growth inhibition assay (CellTitre-Glo), BT474; type: cell-based, human; details: BT474, dose-dependent cell growth inhibition; FIG. 5A
[11] = tested on: Fo5 tumors; assay: Fo5 trastuzumab-resistant HER2-positive murine tumor model: tumor growth and survival; type: in vivo, FVB mice
[12] = Example 4, after 10 days of tucatinib, FIG. 16A-16B
[13] = Example 4, after 10 days of tucatinib, FIG. 16C-16D
[14] = Example 4, after 14 days of tucatinib treatment
[15] = Example 4, tucatinib treated tumors
[16] = tucatinib 100 mg/kg orally once daily, 14 days, FIG. 2L

Cc1cc(Nc2ncnc3ccc(NC4=NC(C)(C)CO4)cc23)ccc1Oc1ccn2ncnc2c1 [tucatinib, N^4-(4-([1,2,4]triazolo[1,5-a]pyridin-7-yloxy)-3-methylphenyl)-N-(4,4-dimethyl-4,5-dihydrooxazol-2-yl) quinazoline-4,6-diamine]
interferon-7 expression in CD4+ effector memory T cell subset [1, 12]: increased | interferon-7 expression in CD8+ effector memory T cell subset [1, 12]: increased | PD-1+ expression in CD8+ effector memory T cells [1, 13]: increased | granzyme B expression in CD8+ effector memory T cells [1, 13]: increased | infiltration of CD8+ T cells expressing PD-1 in the tumor ([1]; tucatinib 50 mg/kg orally once daily, 10-14 days, vs vehicle, FIG. 1A): increase | infiltration of CD8+ T cells expressing IFNγ in the tumor ([1]; tucatinib 50 mg/kg orally once daily, 10-14 days, vs vehicle, FIG. 1B): increase | infiltration of CD8+ T cells expressing FOXP3 in the tumor ([1]; tucatinib 50 mg/kg orally once daily, 10-14 days, vs vehicle, FIG. 1C): increase | CD4+ to CD8+ T cell ratio in the tumor ([1]; tucatinib 50 mg/kg orally once daily, 10-14 days, vs vehicle, FIG. 1D): moderate increase | GI50 at 72 hours [2]: nanomolar range | HER2 signaling pathway (phosphor-HER2 and total HER2) [3]: Inhibition of the HER2 signaling pathway | selectivity for HER2 compared to the closely related kinase EGFR [4]: > 1000 fold | tumor growth ([5]; tucatinib at increasing doses by oral gavage vs vehicle): significant dose-dependent tumor growth inhibition | survival ([5]; tucatinib at increasing doses vs vehicle, FIG. 8B): improved survival | HER2 signaling pathway (phosphor-HER2 and total HER2) [6]: Inhibition of the HER2 signaling pathway | genes associated with favorable clinical response to checkpoint inhibitors ([7]; day 10 post treatment, differential gene expression, FIG. 21A-21D): upregulation | genes related to immune cell function ([7]; day 10 post treatment, tucatinib 50 mg/kg vs vehicle, FIG. 17, 18A-18B): significant upregulation | genes related to antigen presentation ([7]; day 10 post treatment, tucatinib 50 mg/kg vs vehicle, FIG. 19, 20A-20B): significant upregulation | expression of genes predictive of response to immunotherapy (IFNγ-related gene expression signature, expanded immune signature) ([7]; stranded polyA RNA sequencing, tucatinib vs vehicle, FIG. 3A, 3B): increased expression | CD8+ effector memory (CD44+CD62L−) T cell frequency as a percentage of total CD8+ [8, 14]: increased | PD-1+ expression of CD8+ effector memory T cells [8, 14]: significantly higher | TIM3+ expression of CD8+ effector memory T cells [8, 14]: significantly higher | CD8+ proportion ([8]; Example 4, after 14 days of tucatinib treatment vs vehicle): increased | expression of Ki67 in CD8+ effector memory T cells ([8]; Example 4, day 14, FIG. 13A): increased expression | interferon-7 expression in CD8+ effector memory T cells compared to vehicle treated controls ([8]; Example 4, day 14, FIG. 13B): significantly greater | CD49b+ natural killer cell population proportion of CD45+CD3− lymphocytes ([8]; Example 4, day 14, FIG. 14): significantly increased | CD103+ dendritic cells [8, 15]: significant increase | MHC II+ macrophages [8, 15]: significant increase | granulocytic MDSC as proportion of CD45.2+ lymphocytes [8, 15]: significant decrease | neutrophils (CD11c-F4/80-CD11b+Ly6G+Ly6C+) as proportion of CD45.2+ lymphocytes [8, 15]: significant decrease | suppressive MHC II low macrophages as proportion of CD45.2+ lymphocytes [8, 15]: significant decrease | PD-L1 expression on CD45+ cells (total TILs) ([8]; Example 4, tucatinib vs vehicle treated TILs, FIG. 15A-15B): increased intensity | infiltration of natural killer (NK) cells in the tumor ([8]; tucatinib 100 mg/kg orally once daily, 14 days): increase | infiltration of CD8+ T cells in the tumor ([8]; tucatinib 100 mg/kg orally once daily, 14 days, vs vehicle, FIG. 2A): increase | infiltration of CD4+ T cells not expressing FOXP3 in the tumor ([8]; tucatinib 100 mg/kg orally once daily, 14 days, FIG. 2B): increase | infiltration of CD4+ T cells expressing FOXP3 in the tumor ([8]; tucatinib 100 mg/kg orally once daily, 14 days, FIG. 2C): increase | infiltration of CD8+ T cells expressing Ki67 in the tumor ([8]; tucatinib 100 mg/kg orally once daily, 14 days, FIG. 2D): increase | infiltration of CD8+ T cells expressing IFNγ in the tumor ([8]; tucatinib 100 mg/kg orally once daily, 14 days, FIG. 2E): increase | infiltration of CD8+ T cells expressing PD-1 in the tumor ([8]; tucatinib 100 mg/kg orally once daily, 14 days, FIG. 2F): increase | infiltration of CD8+ T cells expressing OX40 in the tumor ([8]; tucatinib 100 mg/kg orally once daily, 14 days, FIG. 2G): increase | infiltration of CD8+ T cells expressing TIM3 in the tumor ([8]; tucatinib 100 mg/kg orally once daily, 14 days, FIG. 2H): increase | infiltration of neutrophils in the tumor ([8]; tucatinib 100 mg/kg orally once daily, 14 days, FIG. 2J): decrease | percentage of CD11 b dendritic cells in the tumor ([8]; tucatinib 100 mg/kg orally once daily, 14 days, FIG. 2K): increase | percentage of MHC-II high in the tumor [8, 16]: increase | percentage of MHC-II low in the tumor [8, 16]: decrease | GI50 at 72 hours [9]: nanomolar range | GI50 at 72 hours [10]: nanomolar range | tumor growth ([11]; tucatinib 25, 50, 100 mg/kg orally once daily vs vehicle, p<0.05): significantly inhibited tumor growth in a dose-dependent manner; also recorded: significant dose-dependent tumor growth inhibition | survival ([11]; tucatinib at increasing doses vs vehicle, FIG. 9B): improved survival
